{
  "source": "patent US9255248B2",
  "about": "“Method of producing erythrocytes without feeder cells” (Anthrogenesis Corporation, priority 2009, dated 2016)",
  "key": {"[1]": {"system": "human UCB derived CD34+ cells", "assay": "Short-term serum-free, cytokine supplemented expansion of UCB derived CD34+ cells with pomalidomide", "format": "cell-based", "details": "for CD34+ phenotype in the expanded population / CD133 level of expanded CD34+ cells / expanded CD34+ cells that are CD38 negative / total nucleated cell expansion: pomalidomide 2.7 μg/mL, 12 days", "method": "The ability of pomalidomide to enhance the expansion of human UCB derived CD34^+ cells in a short-term serum-free, cytokine supplemented culture system was evaluated. CD34^+ progenitor cells were enriched from cryopreserved UCB units to >90% purity and seeded (104 CD34^+ cells) in 1 mL of growth medium, which consists of IMDM plus serum substitute BIT (BSA, recombinant human insulin and transferrin, 20%), in the presence of SCF (50 ng/mL), Flt-3 ligand (50 ng/mL), and IL-3 (10 ng/mL). Pomalidomide, dissolved in DMSO, was supplemented at 2.7 μg/mL. The culture was incubated at 37° C., 5% CO2 for 12 days, with fresh medium added at day 7. Pomalidomide-free cultures with or without DMSO (0.05% v/v) were used as controls."}, "CD34+ cells": {"system": "CD34+ cells", "assay": "Scaled-up pomalidomide-based CD34+ expansion in gas-permeable culture bag", "format": "cell-based, human", "method": "CD34^+ cells were seeded in 10^4/mL pomalidomide-supplemented medium in a flexible, gas-permeable fluorocarbon culture bag (American Fluoroseal). After 7 days of incubation, the culture was centrifuged and exchanged with fresh pomalidomide-supplemented medium at three times the initial volume. By day 12, TNC and CD34^+ expansion were 350 (range: 250-700) and 200 (range: 100-450) fold, respectively (FIG. 4). Viability was 86% (range: 80-90%) by trypan blue. A total of 20 million CD34^+ cells were harvested."}, "[2]": {"details": "day 12, culture bag, seeded 10^4/mL"}},
  "data": [
    {"compound": "Nc1cccc2c1C(=O)N(C1CCC(=O)NC1=O)C2=O", "note": "(stereo not shown) [pomalidomide, 4-(Amino)-2-(2,6-dioxo(3-piperidyl))-isoindoline-1,3-dione]", "values": [
      {"measurement": "CD34+ expression in the expanded population versus control", "setting": "[1]; first experiment", "value": "significantly higher CD34^+ expression"},
      {"measurement": "CD38 expression on cultured cells", "setting": "[1]; first experiment", "value": "appeared to down-regulate CD38 expression"},
      {"measurement": "cumulative colony forming units relative to expanded controls", "setting": "[1]; first experiment", "value": "substantial improvement"},
      {"measurement": "CD34+ phenotype in the expanded population", "setting": "[1]; first experiment", "value": "40-60%"},
      {"measurement": "CD133 level of expanded CD34+ cells", "setting": "[1]; first experiment", "value": 15, "unit": "%"},
      {"measurement": "expanded CD34+ cells that are CD38 negative", "setting": "[1]; first experiment", "value": 95, "unit": "%"},
      {"measurement": "total nucleated cell expansion", "setting": "[1]; first experiment", "value": "200-350 fold"},
      {"measurement": "CD34+ phenotype in the expanded population", "setting": "[1]; second similar experiment", "value": "40-60%"},
      {"measurement": "CD133 level of expanded CD34+ cells", "setting": "[1]; second similar experiment", "value": 11.5, "unit": "%"},
      {"measurement": "expanded CD34+ cells that are CD38 negative", "setting": "[1]; second similar experiment", "value": 97, "unit": "%"},
      {"measurement": "total nucleated cell expansion", "setting": "[1]; second similar experiment", "value": "200-350 fold"},
      {"measurement": "CD34+ expression in the expanded population versus control", "setting": "[1]; second similar experiment", "value": "significantly higher CD34^+ expression"},
      {"measurement": "CD38 expression on cultured cells", "setting": "[1]; second similar experiment", "value": "appeared to down-regulate CD38 expression"},
      {"measurement": "cumulative colony forming units relative to expanded controls", "setting": "[1]; second similar experiment", "value": "substantial improvement"},
      {"measurement": "ex-vivo expansion of placental derived CD34+ progenitors", "setting": "CD34+ cells", "value": "significantly enhanced"},
      {"measurement": "Viability by trypan blue", "setting": "CD34+ cells; day 12, culture bag", "value": "86% (range: 80-90%)"},
      {"measurement": "total CD34+ cells harvested", "setting": "CD34+ cells; day 12, culture bag", "value": 20, "unit": "million"},
      {"measurement": "CD34+ expansion", "setting": "CD34+ cells; [2]", "value": "200 (range: 100-450) fold"},
      {"measurement": "TNC expansion", "setting": "CD34+ cells; [2]", "value": "350 (range: 250-700) fold"}
    ]}
  ]
}
